The values that follow are results of earlier work, collected in US9655859B2, “Accordion pill comprising levodopa for an improved treatment of Parkinson's disease symptoms” (INTEC PHARMA LTD., priority 2010, dated 2017).

The target of this data set is T1, peripheral DOPA decarboxylase (Homo sapiens, UniProt P20711).
T1 construct: host or cells: endogenous enzyme of peripheral tissues in vivo
T1 sequence (P20711 1-480): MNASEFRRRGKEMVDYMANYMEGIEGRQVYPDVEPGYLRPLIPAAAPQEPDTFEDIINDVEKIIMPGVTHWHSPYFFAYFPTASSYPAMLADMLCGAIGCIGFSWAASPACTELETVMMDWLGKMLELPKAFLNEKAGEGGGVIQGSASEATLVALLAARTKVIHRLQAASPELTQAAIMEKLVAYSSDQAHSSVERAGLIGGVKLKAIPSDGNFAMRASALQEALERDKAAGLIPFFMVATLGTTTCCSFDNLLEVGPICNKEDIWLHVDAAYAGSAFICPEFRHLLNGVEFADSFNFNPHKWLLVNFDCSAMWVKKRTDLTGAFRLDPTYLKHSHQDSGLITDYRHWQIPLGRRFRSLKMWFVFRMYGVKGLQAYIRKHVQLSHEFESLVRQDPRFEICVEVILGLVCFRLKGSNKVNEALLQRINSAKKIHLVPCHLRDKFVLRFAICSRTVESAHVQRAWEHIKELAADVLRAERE
The note with it: studies cited.

Consider `C[C@@](Cc1ccc(O)c(O)c1)(NN)C(=O)O` [carbidopa], for which the “carbidopa amount saturating peripheral DOPA decarboxylase” value is 70 to 100 mg a day.
